Among the data in patent US12496348B2, “Small molecule target bromo/acetyl proteins and uses thereof” (DANA-FARBER CANCER INSTITUTE, INC., priority 2019, dated 2025) are IC50 values, retold here.

Broadly, the IC50 is the concentration that gives 50% inhibition.

One assay has as its system Kelly Neuroblastoma cells. The assay is described as follows: ATPlite Luminescence viability assay, Kelly neuroblastoma cells, 72 h. The assay is classed as cell-based. To be noted: Kelly Neuroblastoma cells, ATPlite, class symbols, read-out: IC50 of inventive bispecific compounds. The protocol:
Kelly Neuroblastoma cells were seeded at 1,000 cells per well in 384 well, white plates and were treated in a dose-dependent manner for 72 h.
In general terms: Cellular ATP, detected with luciferase, serves as a proxy for viable cell number.
With `Cc1noc(C)c1-c1ccc2nc(-c3ccc(N4CCN(C(=O)CCOCCOCCOCCNC(=O)COc5cccc6c5C(=O)N(C5CCC(=O)NC5=O)C6=O)CC4)cc3)c(NC3CCCCC3)n2c1` (centres unmarked) [Compound 4, N-(2-(2-(2-(3-(4-(4-(3-(cyclohexylamino)-6-(3,5-dimethylisoxazol-4-yl)imidazo[1,2-a]pyridin-2-yl)phenyl)piperazin-1-yl)-3-oxopropoxy)ethoxy)ethoxy)ethyl)-2-((2-(2,6-dioxopiperidin-3-yl)-1,3-dioxoisoindolin-4-yl)oxy)acetamide], the IC50 is > 10 µM. Same read-out and setting: for `Cc1noc(C)c1-c1ccn2c(NCc3ccccc3)c(-c3ccc(N4CCN(C(=O)CCOCCOCCOCCOCCOCCOCCNc5cccc6c5C(=O)N(C5CCC(=O)NC5=O)C6=O)CC4)cc3)nc2c1` (centres unmarked) [Compound 5, 4-((21-(4-(4-(3-(benzylamino)-7-(3,5-dimethylisoxazol-4-yl)imidazo[1,2-a]pyridin-2-yl)phenyl)piperazin-1-yl)-21-oxo-3,6,9,12,15,18-hexaoxahenicosyl)amino)-2-(2,6-dioxopiperidin-3-yl)isoindoline-1,3-dione] the value was > 10 µM. On the same count and under the same terms, the result for `Cc1noc(C)c1-c1ccn2c(NCc3ccccc3)c(-c3ccc(N4CCN(C(=O)CCOCCOCCOCCNc5cccc6c5C(=O)N(C5CCC(=O)NC5=O)C6=O)CC4)cc3)nc2c1` (centres unmarked) [Compound 6, 4-((2-(2-(2-(3-(4-(4-(3-(benzylamino)-7-(3,5-dimethylisoxazol-4-yl)imidazopyridin-2-yl)phenyl)piperazin-1-yl)-3-oxopropoxy)ethoxy)ethoxy)ethyl)amino)-2-(2,6-dioxopiperidin-3-yl)isoindoline-1,3-dione] reads 1 to 10 µM; that for `Cc1noc(C)c1-c1ccn2c(NC3CCCCC3)c(CCc3ccc(NC(=O)CCCCCCCCCCCNc4cccc5c4C(=O)N(C4CCC(=O)NC4=O)C5=O)cc3)nc2c1` (centres unmarked) [Compound 9, N-(4-(2-(3-(cyclohexylamino)-7-(3,5-dimethylisoxazol-4-yl)imidazo[1,2-a]pyridin-2-yl)ethyl)phenyl)-12-((2-(2,6-dioxopiperidin-3-yl)-1,3-dioxoisoindolin-4-yl)amino)dodecanamide], > 10 µM. Still for that read-out and setting: the result for `Cc1noc(C)c1-c1ccn2c(NC3CCCCC3)c(CCc3ccc(NC(=O)CCCCCCCCCCCNC(=O)COc4cccc5c4C(=O)N(C4CCC(=O)NC4=O)C5=O)cc3)nc2c1` (centres unmarked) [Compound 10, N-(4-(2-(3-(cyclohexylamino)-7-(3,5-dimethylisoxazol-4-yl)imidazo[1,2-a]pyridin-2-yl)ethyl)phenyl)-12-(2-((2-(2,6-dioxopiperidin-3-yl)-1,3-dioxoisoindolin-4-yl)oxy)acetamido)dodecanamide] reads > 10 µM; that for `Cc1noc(C)c1-c1ccn2c(NC3CCCCC3)c(CCc3ccc(NC(=O)CCCCCCCNc4cccc5c4C(=O)N(C4CCC(=O)NC4=O)C5=O)cc3)nc2c1` (centres unmarked) [Compound 13, N-(4-(2-(3-(cyclohexylamino)-7-(3,5-dimethylisoxazol-4-yl)imidazo[1,2-a]pyridin-2-yl)ethyl)phenyl)-8-((2-(2,6-dioxopiperidin-3-yl)-1,3-dioxoisoindolin-4-yl)amino)octanamide], > 10 µM. `Cc1noc(C)c1-c1ccn2c(NC3CCCCC3)c(CCc3ccc(NC(=O)CCCCCNc4ccc5c(c4)C(=O)N(C4CCC(=O)NC4=O)C5=O)cc3)nc2c1` (centres unmarked) [Compound 14, N-(4-(2-(3-(cyclohexylamino)-7-(3,5-dimethylisoxazol-4-yl)imidazo[1,2-a]pyridin-2-yl)ethyl)phenyl)-6-((2-(2,6-dioxopiperidin-3-yl)-1,3-dioxoisoindolin-5-yl)amino)hexanamide]: the IC50 was 1 to 10 µM.

Still in this assay, the particulars now being: Kelly Neuroblastoma cells, ATPlite, read-out: IC50.
Consider `Cc1noc(C)c1-c1ccn2c(NCc3ccccc3)c(-c3ccc(N4CCN(C(=O)CCOCCOCCOCCNc5cccc6c5C(=O)N(C5CCC(=O)NC5=O)C6=O)CC4)cc3)nc2c1` (centres unmarked) [Compound 6, 4-((2-(2-(2-(3-(4-(4-(3-(benzylamino)-7-(3,5-dimethylisoxazol-4-yl)imidazopyridin-2-yl)phenyl)piperazin-1-yl)-3-oxopropoxy)ethoxy)ethoxy)ethyl)amino)-2-(2,6-dioxopiperidin-3-yl)isoindoline-1,3-dione], for which the IC50 came to 1.27 µM.
